Among the test systems are 786-0 renal; A549 NSCLC; EKVX NSCLC; HCT-116 colon; KM20L2 colon; TK-10 renal; HOP-62 NSCLC; OVCAR-4 ovarian; RXF 393 renal; DMS 114 small cell lung.
Common to all, as to experiment: NCI anticancer screen, dose series, 48 h

This passage reports TGI and GI50 results from PubChem BioAssay (NCI).

Each structure is given as a SMILES string.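 Cells were grown in 96-well plates and exposed to each compound for 48 hours at five concentrations; endpoints were interpolated linearly between bracketing concentrations, or set to the highest concentration if not reached. Abbreviation: GI50, concentration required for 50% inhibition of growth. TGI: total growth inhibition.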

For the compound `Cc1ccc(NC(=O)C2C(=O)N(c3ccc(C)c(C)c3)C(=O)/C2=N\NC(N)=S)cc1C` (configuration not stated), the TGI in the experiment on 786-0 renal, in the experiment on A549 NSCLC, in the experiment on EKVX NSCLC, in the experiment on HCT-116 colon, in the experiment on KM20L2 colon and in the experiment with TK-10 renal was greater than 100 µM in each case.
For `COc1ccc(Cl)cc1NC(=O)c1cccc([N+](=O)[O-])c1O`, the TGI with 786-0 renal was 58.7 µM; with A549 NSCLC, 45.2 µM; in the experiment with EKVX NSCLC, 51.4 µM; in the experiment on HCT-116 colon, 43.3 µM; in the experiment with HOP-62 NSCLC, 21.4 µM; with KM20L2 colon, 89.9 µM. Further, the TGI in the experiment with OVCAR-4 ovarian is greater than 88.3 µM; with RXF 393 renal, 53.2 µM; with TK-10 renal, greater than 100 µM.
For `Cc1[nH]nc2c1C(=O)C=C(N(CCO)c1ccccc1)C2=O`, the TGI with 786-0 renal, in the experiment on A549 NSCLC, in the experiment on DMS 114 small cell lung, with EKVX NSCLC, with HCT-116 colon and in the experiment with RXF 393 renal was greater than 100 µM throughout. The compound also gave a TGI with TK-10 renal greater than 100 µM.
On to `CCCCN(CCCC)C(=O)C(=O)C(C)C(=O)CC` (configuration not stated), for which the TGI in the experiment on 786-0 renal, in the experiment on A549 NSCLC, in the experiment with HOP-62 NSCLC, in the experiment with KM20L2 colon, in the experiment with OVCAR-4 ovarian and in the experiment on TK-10 renal was greater than 100 µM in each case.
As to `N[C@@H]1CCCC[C@@H]1N.O=C([O-])CN(CP(=O)([O-])[O-])CP(=O)([O-])[O-].[Pt+2]`, the GI50 in the experiment with 786-0 renal, in the experiment with A549 NSCLC, with HCT-116 colon, in the experiment on HOP-62 NSCLC, in the experiment with KM20L2 colon and in the experiment on OVCAR-4 ovarian was greater than 100 µM throughout. In addition, the GI50 with TK-10 renal was greater than 100 µM. The TGI in the experiment on 786-0 renal, in the experiment on A549 NSCLC, in the experiment on HCT-116 colon, in the experiment on HOP-62 NSCLC, in the experiment on KM20L2 colon and with OVCAR-4 ovarian was greater than 100 µM in each case. Also, the TGI in the experiment on TK-10 renal was greater than 100 µM.
Take `Cc1cccc(C)c1NC(=O)CCC(=O)NC(N)=S`: the TGI in the experiment on 786-0 renal, in the experiment on A549 NSCLC, with EKVX NSCLC, with HCT-116 colon, in the experiment on HOP-62 NSCLC and in the experiment on KM20L2 colon was greater than 100 µM each time. The TGI in the experiment with RXF 393 renal and in the experiment on TK-10 renal was greater than 100 µM in each case.
For the compound `C[C@]12C3CC[C@@]4(CO)C[C@]3(CCC1[C@](C)(C(=O)O)CC[C@@H]2O)CC4=O` (some centres not stated), the GI50 with 786-0 renal, in the experiment on A549 NSCLC, in the experiment on EKVX NSCLC, in the experiment on HCT-116 colon, with HOP-62 NSCLC and in the experiment on OVCAR-4 ovarian was greater than 100 µM each time. Further, the GI50 in the experiment on RXF 393 renal and with TK-10 renal was greater than 100 µM throughout. The TGI in the experiment on 786-0 renal, in the experiment with A549 NSCLC, with EKVX NSCLC, with HCT-116 colon, in the experiment on HOP-62 NSCLC and in the experiment with OVCAR-4 ovarian was greater than 100 µM throughout. Also, the TGI with RXF 393 renal and in the experiment with TK-10 renal was greater than 100 µM each time.
In the case of `CCN(CC)CCOc1ccc2c(c1)C(=O)c1cc(OCCN(CC)CC)ccc1-2`, the GI50 in the experiment on 786-0 renal is 7.17 µM; in the experiment on A549 NSCLC, 6.4 µM; with EKVX NSCLC, 20 µM; in the experiment with HCT-116 colon, 3.45 µM; in the experiment on HOP-62 NSCLC, 8.12 µM; with OVCAR-4 ovarian, 5.69 µM. Further, the GI50 was 10.2 µM with RXF 393 renal and 19.2 µM with TK-10 renal. In addition, the TGI in the experiment with 786-0 renal was 21.8 µM; in the experiment on A549 NSCLC, 32.9 µM; in the experiment with EKVX NSCLC, 63.6 µM; in the experiment on HCT-116 colon, 15.2 µM; in the experiment with HOP-62 NSCLC, 28 µM; with OVCAR-4 ovarian, 38.7 µM. Also, the TGI turned out to be 24 µM in the experiment on RXF 393 renal and 90.9 µM in the experiment with TK-10 renal.
`COc1cc2cc(Oc3ccc(NC(=O)Nc4ccc(Cl)c(C(F)(F)F)c4)cc3)c(C)nc2cc1OC`: the GI50 in the experiment on 786-0 renal was 1.17 µM; in the experiment with EKVX NSCLC it was 1.01 µM; in the experiment with HCT-116 colon, 0.994 µM; in the experiment with HOP-62 NSCLC it was 1.3 µM; with OVCAR-4 ovarian, 1.37 µM; with RXF 393 renal, 1.33 µM. Moreover, the GI50 with TK-10 renal is 1.32 µM. Also, the TGI came to 4.96 µM with 786-0 renal; 4.16 µM with A549 NSCLC; 3.75 µM in the experiment on EKVX NSCLC; 3.84 µM in the experiment with HCT-116 colon; 5.32 µM with HOP-62 NSCLC; 6.1 µM with OVCAR-4 ovarian. For the same compound, the TGI with RXF 393 renal came out at 4.21 µM; in the experiment with TK-10 renal, 6.19 µM.
Consider `COC(=O)OCc1ccc2c(c1)C(=O)c1c-2n(CCCBr)c(=O)c2cc([N+](=O)[O-])ccc12`, for which the GI50 in the experiment with 786-0 renal is 31.7 µM; in the experiment on A549 NSCLC, greater than 100 µM; in the experiment with EKVX NSCLC it was 74.3 µM; in the experiment with HCT-116 colon, 81.2 µM; in the experiment with HOP-62 NSCLC, 27.7 µM; in the experiment on OVCAR-4 ovarian, greater than 100 µM. The values for the GI50 in the experiment on RXF 393 renal and in the experiment with TK-10 renal were 0.16 µM and 19.1 µM, respectively. Further, the TGI in the experiment with 786-0 renal is 92 µM; in the experiment with A549 NSCLC, greater than 100 µM; in the experiment on EKVX NSCLC, greater than 100 µM; in the experiment on HCT-116 colon, greater than 100 µM; in the experiment with HOP-62 NSCLC, greater than 100 µM; with OVCAR-4 ovarian, greater than 100 µM. For the same compound, the TGI in the experiment with RXF 393 renal was determined as 8.45 µM; in the experiment on TK-10 renal it was 61.3 µM.
As to `NC(Cc1ccnnc1)C(=O)O` (configuration not stated), the TGI in the experiment on 786-0 renal, with A549 NSCLC, in the experiment with EKVX NSCLC, in the experiment with HCT-116 colon, with HOP-62 NSCLC and with OVCAR-4 ovarian was greater than 100 µM in each case. Besides, the TGI in the experiment on RXF 393 renal and in the experiment on TK-10 renal was greater than 100 µM each time.
Turning to `C1=C(c2ccccc2)C(c2ccc(OCCN3CCCCC3)cc2)Oc2ccccc21` (configuration not stated), the GI50 is 1.5 µM in the experiment on 786-0 renal; 2.19 µM in the experiment on A549 NSCLC; 1.54 µM in the experiment on EKVX NSCLC; 1.7 µM in the experiment on HCT-116 colon; 1.67 µM in the experiment on HOP-62 NSCLC; 2.37 µM with OVCAR-4 ovarian. In addition, the values for the GI50 in the experiment on RXF 393 renal and in the experiment with TK-10 renal were 1.61 µM and 1.69 µM, respectively. Moreover, the TGI was 2.83 µM in the experiment on 786-0 renal; 4.76 µM in the experiment with A549 NSCLC; 3.35 µM in the experiment on EKVX NSCLC; 3.07 µM with HCT-116 colon; 3.29 µM in the experiment on HOP-62 NSCLC; 7.09 µM with OVCAR-4 ovarian. The TGI with RXF 393 renal came out at 3.11 µM; in the experiment on TK-10 renal, 3.4 µM.
